Here are results for two molecules from ChEMBL document CHEMBL1795230, “Conformational variability of different sulfonamide inhibitors with thienyl-acetamido moieties attributes to differential binding in the active site of cytosolic human carbonic anhydrase isoforms” (Bioorg Med Chem, 2011).

For one test, the target named is Carbonic anhydrase 3 (Homo sapiens, UniProt P07451).
The target in a further test is Carbonic anhydrase 13 (Homo sapiens, UniProt Q8N1Q1).
Sequence of Carbonic anhydrase 13 (Q8N1Q1 whole entry): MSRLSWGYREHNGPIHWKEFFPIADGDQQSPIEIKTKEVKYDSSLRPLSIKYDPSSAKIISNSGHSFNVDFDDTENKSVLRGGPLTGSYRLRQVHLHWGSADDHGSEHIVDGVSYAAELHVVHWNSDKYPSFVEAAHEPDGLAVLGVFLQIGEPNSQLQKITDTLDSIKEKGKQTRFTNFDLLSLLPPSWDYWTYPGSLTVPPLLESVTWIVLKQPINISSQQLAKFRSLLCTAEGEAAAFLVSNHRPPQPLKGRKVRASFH

Sequence of Carbonic anhydrase 3 (P07451 whole entry): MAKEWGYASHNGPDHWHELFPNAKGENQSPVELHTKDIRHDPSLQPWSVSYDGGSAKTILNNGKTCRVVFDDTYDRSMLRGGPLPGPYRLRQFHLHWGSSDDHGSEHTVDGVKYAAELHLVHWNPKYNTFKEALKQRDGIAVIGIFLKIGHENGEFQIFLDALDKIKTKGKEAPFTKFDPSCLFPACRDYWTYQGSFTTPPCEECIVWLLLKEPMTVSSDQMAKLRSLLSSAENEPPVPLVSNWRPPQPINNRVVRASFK

As usually defined, the Ki is a dissociation constant, usually derived from enzyme kinetics or from competition with a known ligand. Read a low Ki as higher affinity. For the molecule `NS(=O)(=O)c1ccc(NC(=O)Cc2cccs2)cc1`, the Ki at Carbonic anhydrase 3 is 800 µM; at Carbonic anhydrase 13, 125 nM.
As to `NS(=O)(=O)c1cc(Cl)c(Cl)c(S(N)(=O)=O)c1` [DICHLORPHENAMIDE], on Carbonic anhydrase 13, the Ki came to 23 nM.
